B1: HBC34-v2: HBC34 variant, W107F in the CDR3 of the VH and W107A in the CDR3 of the VL (antibody, V domains shown)
VH: ELQLVESGGGWVQPGGSQRLSCAASGRIFRSFYMSWVRQAPGKGLEWVATINQDGSEKLYVDSVKGRFTISRDNAKNSLFLQMNNLRVEDTAVYYCAAFSGNSGGMDVWGQGTTVSVSS
VL: SYELTQPPSVSVSPGQTVSIPCSGDKLGNKNVCWFQHKPGQSPVLVIYEVKYRPSGIPERFSGSNSGNTATLTISGTQAMDEAAYFCQTADSTTVVFGGGTRLTVL

Experiments:
HBV (genotype D) = test: HBV spreading in humanized uPA/SCID mice, treatment from 3 weeks post-infection; format: in vivo, uPA/SCID mice repopulated with primary human hepatocytes; details: for cccDNA measurements versus mice sacrificed 3 weeks post HBV infection: treated from week 3 to week 9 post-infection
HBV = HBV neutralization on differentiated HepaRG cells; format: cell-based, hepatitis B virus; details: HBC34 result at 5 and 0.5 μg/ml, antibodies tested at 5, 0.5 and 0.05 μg/ml
Method: At the end of the incubation, the cells were washed and further cultivated. Medium was changed every 3 days. Infection was detected by measuring in enzyme-linked immunosorbent assay (ELISA) the levels of hepatitis B surface antigen (HBsAg) and hepatitis B e antigen (HBeAg) secreted into the culture supernatant from day 7 to 11 post-infection and by detecting HBcAg staining in an immunofluorescence assay.

[1] = system: 19 different HBsAg genotype D mutants; format: binding, hepatitis B virus; details: 5 μg/ml
[2] = system: HBsAg serotypes (adw, ady and ayw); test: ELISA binding to HBsAg serotypes; design: species or system hepatitis B virus; details: similar and low EC50 values
[3] = system: antigenic loop region of the HBsAg; format: binding, hepatitis B virus; details: antibody at 1 μg/ml
HBV viral particles = test: Western blot on HBV viral particles under reducing conditions; format: binding, hepatitis B virus
Text: Ab4 is a comparative antibody, which is also reactive against the antigenic loop.

HBsAg (adw subtype) = test: ELISA binding of HBC34 variants to HBsAg adw antigen; design: species or system hepatitis B virus; details: Example 11, 18 variants, FIG. 21

Row | Molecule | cccDNA measurements versus mice sacrificed 3 weeks post HBV infection (HBV (genotype D)) | neutralization of HBV infection (HBV) | number of the 19 HBsAg mutants bound [1] | decrease of levels of circulating HBsAg (HBV (genotype D); baseline to week 6 of treatment (week 9 post-infection)) [log] | binding to three HBsAg serotypes (adw, ady and ayw) [2] | binding to three additional peptides (SEQ ID NO 53, 54, 55) [3] | reactivity in western blot (HBV viral particles) | effect of mutation(s) on binding to HBsAg compared with parental HBC34 (HBsAg (adw subtype))
1 | C=C1[C@H](CO)[C@@H](O)C[C@@H]1n1cnc2c(=O)[nH]c(N)nc21 [entecavir, reference compound] | did not differ significantly | – | – | – | – | – | – | –
2 | HBC34: IgG1-type fully human monoclonal antibody against HBsAg antigenic loop; VH SEQ ID NO: 41, VL SEQ ID NO: 42 | did not differ significantly | neutralized completely | 18 | > 1 | binds with high affinity | recognized with a lower signal | does not react at all | –
3 | B1 | – | – | – | – | – | – | – | completely abolished

From US11390664B2, “Antibodies that potently neutralize hepatitis B virus and uses thereof” (priority 2015, dated 2022)
